Test results taken from US8697382B2, “Method of identifying metallo-β-lactamase-producing bacteria” (Meiji Seika Pharma Co., Ltd., priority 2009, dated 2014).

System: IMP-1-producing Pseudomonas aeruginosa
Test: Disk diffusion test: β-lactam agent disks placed 20 mm from a central compound (I) disk; growth inhibition zone radius measured
Format: cell-based
Conditions: Muller-Hinton agar, overnight culture at 35° C.; for Ratio = Maximum/Minimum inhibition zone radius (degree of change in radius, A3/B3/C3): change caused by the compound (I) disk; for Inhibition zone radius, Maximum (A2/B2/C2): subzone on the compound (I) (disodium 2,3-diethylmaleate) disk side, subject to the metallo-β-lactamase inhibitor; for Inhibition zone radius, Minimum (A1/B1/C1): subzone on the side opposite to the compound (I) disk, not subject to the metallo-β-lactamase inhibitor
Excerpt: When the bacteria to be tested are MBL-producing bacteria, the shape of an inhibition zone formed around each β-lactam agent varies depending on the effect of the metallo-β-lactamase inhibitor (compound (I)). In this case, the inhibition zone formed around each β-lactam agent can be divided into two subzones (i.e., an inhibition subzone formed on the side opposite to the compound (I)-containing disk and an inhibition subzone formed on the compound (I)-containing disk side) by measurement along the center lines of the β-lactam agent-containing and compound (I)-containing disks (FIG. 1).
The inhibition subzone formed on the side opposite to the compound (I)-containing disk is not subject to the effect of the metallo-β-lactamase inhibitor. Thus, its radius can be minimized in the whole inhibition zone (e.g., the numerical value obtained here can be defined as “A1”, “B1” and “C1” for the β-lactam agents (A), (B) and (C), respectively (Table 1)). When no inhibition zone is formed, the radius of the disk can be used.
The inhibition subzone formed on the compound (I)-containing disk side is subject to the effect of the metallo-β-lactamase inhibitor. Thus, its radius can be maximized in the whole inhibition zone (e.g., the numerical value obtained here can be defined as “A2”, “B2” and “C2” for the β-lactam agents (A), (B) and (C), respectively (Table 1)). When no inhibition zone is formed, the radius of the disk can be used. Moreover, when the formed inhibition zone is wider than the distance between the disks, the distance from the center of the drug-containing disk to the compound (I)-containing disk can be used (e.g., “A2” in the flow 8 in the flowchart of FIG. 2 represents the distance from the center of the β-lactam agent (A)-containing disk to the compound (I)-containing disk).
The degree of change in the shape of the inhibition zone caused by the effect of the metallo-β-lactamase inhibitor can be measured as the ratio between the minimum and maximum radiuses of the inhibition zone, i.e., the degree of change in radius. For example, it can be calculated by dividing the maximum radius of the inhibition zone by the minimum radius thereof (e.g., this calculated value can be defined as “A3”, “B3”, and “C3”, respectively (Table 1)).
According to the disk diffusion method specified by CLSI, a Muller-Hinton agar medium was coated with a bacterial solution adjusted to McFarland standard turbidity of 0.5. No water droplet of the bacterial solution on the medium surface was confirmed, and round filter papers (diameter: approximately 6 mm) respectively containing 300 μg of a compound (I), 100 μg of biapenem as a drug (A), 100 μg of imipenem as a drug (B), and 300 μg of ceftazidime as a drug (C) were placed thereonto as drug-containing disks. The compound (I) used was a compound represented by the formula (I) wherein both R^1 and R^2 are an ethyl group, and M^1 is a sodium cation (disodium 2,3-diethylmaleate). The compound (I) was placed at the center of the agar medium, while the drugs (A) to (C) were placed such that the center of each disk was 20 mm distant from the center of the compound (I). After overnight culture at 35° C., the minimum and maximum radiuses of a growth inhibition zone around each disk were measured, and the degree of change in radius was calculated according to Table 1. The IMP or VIM MBL-producing bacteria were identified using a decision flow of FIG. 2.
In Example 2, bacteria to be tested were IMP-1-producing Pseudomonas aeruginosa. According to the disk diffusion method specified by CLSI, a Muller-Hinton agar medium was coated with the Pseudomonas aeruginosa, and disks were then placed thereonto.
In FIG. 4, the upper disk contained biapenem (BIPM) (A); the lower right disk contained imipenem (IPM) (B); the lower left disk contained ceftazidime (CAZ) (C); and the central disk was a compound (I)-containing disk. […]

Compound | Ratio = Maximum/Minimum inhibition zone radius (degree of change in radius, A3/B3/C3) | Inhibition zone radius, Maximum (A2/B2/C2) | Inhibition zone radius, Minimum (A1/B1/C1)
C[C@@H](O)[C@H]1C(=O)N2C(C(=O)[O-])=C(SC3Cn4cnc[n+]4C3)[C@H](C)[C@H]12 (stereo partly drawn) [biapenem] | 2.9 | 16.0 mm | 5.5 mm
CC(C)(O/N=C(\C(=O)N[C@@H]1C(=O)N2C(C(=O)[O-])=C(C[n+]3ccccc3)CS[C@H]12)c1csc(N)n1)C(=O)O [ceftazidime] | 4.1 | 14.5 mm | 3.5 mm
C[C@@H](O)[C@H]1C(=O)N2C(C(=O)O)=C(SCCN=CN)C[C@H]12 [imipenem] | 2.2 | 14.0 mm | 6.5 mm
